Measurements: patent US10039729B2, “Use of kukoamine A and kukoamine B” (Tianjin Chase Sun Pharmaceutical Co., Ltd., priority 2010, dated 2018)
Read-outs that look alike come from different tables or passages of the source.

Key:
[1] = tested on: CpG DNA; assay: Affinity biosensor binding with immobilized CpG DNA; conditions: for affinity with CpG DNA: 100 μM operating solution; for affinity with CpG DNA / affinity / binding with CpG DNA: 5 μl loaded; for affinity / binding with CpG DNA: 4 μM solution
Text: (§1) Immobilization of lipid A and CpG DNA: Using Optically-Based Affinity Biosensors technology, Lipid A, the biologic active centres of LPS, and CpG DNA were respectively, immobilized on the reacting surfaces of cuvettes in an IAsys plus affinity biosensor according to the manufacturer's instructions of IAsys Affinity Sensor. The end of hydrophobic side chain of lipid A was immobilized on cuvette with hydrophobic surface, and the phosphate group (active group of lipid A) at the other end was floating and exposing to the outside, which act as target spot of binding with active constituents for disease treatment in traditional Chinese medicine. The active constituents in solution were binded to lipid A through electrostatic interaction. Biotinylated CpG DNA was immobilized on the surface of a biotin cuvette by linking to avidin, which had been coated on the surface of a biotin cuvette, and then the unlabeled group of CpG DNA was floating and exposing to the outside, which act as target spot of binding with active constituents for disease treatment in traditional Chinese medicine. The active constituents in solution were binded to CpG DNA through the electrostatic interaction and embodiment.
Detection of the aqueous herbal extract: The crude drugs of 114 traditional Chinese herbs were pulverized. 1 g of each powder was added with 10 ml distilled water, boiled at 100° C. for 1.5 h, centrifuged at 4000 rpm for 20 min, filtrated and then collected the supernatant. 5 μl of aqueous herbal extracts of each herb were used to detect their binding with lipid A or CpG DNA. Here are the steps: Binding reaction: 45 μl PBS was added in cuvette; then 5 μl samples was added in cuvette; liquid were draw-out after binding response reach a plateau; Dissociation: Cuvette was washed thrice in 50 μl PBS; liquid were draw-out after dissociation reach a plateau; Regeneration: Cuvette was washed thrice in 50 μl 0.1N HCl; liquid were draw-out after regeneration reach a plateau; Cuvette was washed thrice in 50 μl PBS; next cycle was started to detect new sample after curves back to baseline levels and smoothed. Data analysis was performed using the FASTplot software after detection finished.
2.1.1 Methods: 500 g Lycii cortex was added with 5 L distilled water, soaked for 24 h, boiled at 100 for 1 h, filtered by coarse filter paper, and centrifuged at 8000 rpm/min for 30 min, and the supernatant was collected and concentrated to 1 L under reduced pressure. The supernatant was loaded onto AB-8 Macroporous adsorption resin, and eluted with distilled water and gradient ethanol (10%, 20%, 40% and 100%) successively. The eluted fractions were separately collected, and lyophilized after concentrated under reduced pressure. Five constituents were obtained, and named CL-1 to -5 according to their elution order. CL constituents were separately dissolved in PBS to make 1.0 mg/ml solution, 5 μl of which were loaded. Their binding activity with lipid A and CpG DNA were detected according to methods of embodiment 1.
2.2.1 Methods: CL-4 lyophilization powder was diluted into ultrapure water to make 100 mg/ml solution, filtered by a 0.45 μm filter membrane, loaded onto D001 cationic exchange gel column, and eluted with distilled water, 0.3 M Na2HPO4 and 0.5 M Na2HPO4 successively. The eluted fractions were separately collected, and lyophilized after concentrated under reduced pressure. Three constituents were obtained, and named CL-4a, -4b and -4c according to their elution order. CL-4 constituents were separately dissolved in PBS to make 1.0 mg/ml solution, 5 μl of which were loaded. Their binding activity with lipid A and CpG DNA were detected according to methods of embodiment 1.
3.1 Methods: KA and KB were separately dissolved to make 100 μM operating solution; 5 μl of the solution was loaded; their binding activity with lipid A and CpG DNA were detected according to methods of embodiment 1. […]

[2] = tested on: RAW264.7 cells; assay: Binding of fluorescently-labeled LPS and CpG DNA with RAW264.7 cells (flow cytometry); format: cell-based, murine; conditions: 30 min; for fluorescence intensity of CpG DNA in RAW264.7 cells / fluorescence intensity of LPS in RAW264.7 cells: 200 μg/ml, p<0.01; for fluorescence intensity of CpG DNA in RAW264.7 cells: 5-FAM CpG DNA 10 μg/ml; for fluorescence intensity of LPS in RAW264.7 cells: FITC-labeled LPS 400 ng/ml
Description: 5.1 Methods: RAW264.7 cells were diluted to 1×10^6/ml in DMEM supplemented with 10% (v/v) NCS, added into 24-well cell culture plates, cultured at 37° C. in a 5% CO2 humidified incubator for 4 h, added with KA and KB (0, 200 μg/ml) after cells attachment, and then added with FITC-labeled LPS (final concentration of 400 ng/ml) and 5-FAM CpG DNA (final concentration of 10 μg/ml); at the same time, medium group without any reagent was established; subsequently, RAW264.7 cells were incubated for 30 min, washed thrice in PBS, resuspended with a pipet and transferred into EP tube, and immobilized with 4% paraform for 10 min; then cells were washed thrice in PBS, made into cell suspension, and detected by flow cytometry; the detections of each group were repeated thrice. Mean fluorescence intensity was expressed by means of Mean±standard deviation.
20.1 Methods: RAW264.7 cells was diluted to 1×10^6/ml in DMEM supplemented with 10% (v/v) NCS; 2 ml of the above suspension was added into 24-well cell culture plates and cultured at 37° C. in a 5% CO2 humidified incubator for 4 h; for the purpose of experiment three groups were established: medium group, stimulation group and KB treatment group; no reagent was added into medium group; stimulation group was added with FITC-LPS (200 ng/ml) and 5-FAM-CpG DNA (10 μg/ml); KB treatment group was added with KB (final concentrations of 50, 100 and 200 μM) in the meantime of adding LPS and CpG DNA; cells continued to be cultured for 30 min, washed thrice with PBS, and stored in dark place until the fluorescence intensity of cell membrane surfaces was detected by flow cytometry.

[3] = Affinity biosensor binding with immobilized lipid A; conditions: 100 μM operating solution, 5 μl loaded
Text: Immobilization of lipid A and CpG DNA: Using Optically-Based Affinity Biosensors technology, Lipid A, the biologic active centres of LPS, and CpG DNA were respectively, immobilized on the reacting surfaces of cuvettes in an IAsys plus affinity biosensor according to the manufacturer's instructions of IAsys Affinity Sensor. The end of hydrophobic side chain of lipid A was immobilized on cuvette with hydrophobic surface, and the phosphate group (active group of lipid A) at the other end was floating and exposing to the outside, which act as target spot of binding with active constituents for disease treatment in traditional Chinese medicine. The active constituents in solution were binded to lipid A through electrostatic interaction. […]
2.1.1 Methods: 500 g Lycii cortex was added with 5 L distilled water, soaked for 24 h, boiled at 100 for 1 h, filtered by coarse filter paper, and centrifuged at 8000 rpm/min for 30 min, and the supernatant was collected and concentrated to 1 L under reduced pressure. […] Their binding activity with lipid A and CpG DNA were detected according to methods of embodiment 1. […]
3.1 Methods: KA and KB were separately dissolved to make 100 μM operating solution; 5 μl of the solution was loaded; their binding activity with lipid A and CpG DNA were detected according to methods of embodiment 1.

[4] = Affinity biosensor binding with LPS
Text: as §1
Detection of the aqueous herbal extract: The crude drugs of 114 traditional Chinese herbs were pulverized. 1 g of each powder was added with 10 ml distilled water, boiled at 100° C. for 1.5 h, centrifuged at 4000 rpm for 20 min, filtrated and then collected the supernatant. 5 μl of aqueous herbal extracts of each herb were used to detect their binding with lipid A or CpG DNA. […]
9.1 Methods: KB was separately diluted with PBS to make solutions of 0.25, 0.5, 1, 2 and 4 μM; 5 μl of each solution was separately loaded; binding reaction of KB of various concentration with LPS and CpG DNA was assayed according to the methods in embodiment 1. The dissociation equilibrium constant (KD) of KB with LPS and CpG DNA was calculated using the IAsys FASTfit software. […]

| Compound | affinity with CpG DNA [1] | fluorescence intensity of CpG DNA in RAW264.7 cells [2] | fluorescence intensity of LPS in RAW264.7 cells [2] | affinity with lipid A [3] | Kd ([4]; KB 0.25-4 μM, IAsys FASTfit, read-out: dissociation equilibrium constant (KD) with LPS) [nM] | Kd ([4]; with LPS, read-out: dissociation equilibrium constant (KD = kass/kdiss)) [nM] | affinity / binding with CpG DNA [1] | Kd ([1]; KB 0.25-4 μM, IAsys FASTfit, read-out: dissociation equilibrium constant (KD) with CpG DNA) [nM] | Kd ([1]; with CpG DNA, read-out: dissociation equilibrium constant (KD = kass/kdiss)) [nM] | mean fluorescence intensity (MFI) of cell membrane, 5-FAM-CpG DNA ([2]; KB 50, 100 and 200 μM, 5-FAM-CpG DNA 10 μg/ml) | mean fluorescence intensity (MFI) of cell membrane, FITC-LPS ([2]; KB 50, 100 and 200 μM, FITC-LPS 200 ng/ml) | affinity with LPS ([4]; 4 μM solution, 5 μl loaded) |
| --- | --- | --- | --- | --- | --- | --- | --- | --- | --- | --- | --- | --- |
| O=C(CCc1ccc(O)c(O)c1)NCCCNCCCCNCCCNC(=O)CCc1ccc(O)c(O)c1 [KA, Kukoamine A] | high affinity | significantly decrease the fluorescence intensity | significantly decrease the fluorescence intensity | high affinity |  |  |  |  |  |  |  |  |
| NCCCN(CCCCNCCCNC(=O)CCc1ccc(O)c(O)c1)C(=O)CCc1ccc(O)c(O)c1 [KB, Kukoamine B] | high affinity | significantly decrease the fluorescence intensity | significantly decrease the fluorescence intensity | high affinity | 1240 | 1240 | high affinity | 660 | 664 | decrease the MFI of cell membrane in a dose-dependent manner | decrease the MFI of cell membrane in a dose-dependent manner |  |
| polymyxin B [PMB, reference compound] |  |  |  |  |  |  | almost has no binding effects |  |  |  |  | high affinity |
